In paper PMC11048155, “Antiviral Drug Candidate Repositioning for Streptococcus suis Infection in Non-Tumorigenic Cell Models” (Biomedicines, 2024):
Converted amounts (≈) assume the structure as drawn. “Also recorded” adds a separate entry of the source. Like-named read-outs stand apart in the source and are kept apart here.

Tests used:
IPEC-J2 cells [1] = experiment: Cell viability, Neutral red assay; type: cell-based, porcine; details: IPEC-J2, S. suis 10^4 CFU/mL in combination with inhibitor 50 µM, 24 h
Text: The IPEC-J2 cell line is unique as it is non-transformed and non-tumorigenic. IPEC-J2 cells are derived from intestinal enterocytes extracted from the jejunum of neonatal unsuckled piglets. IPEC-J2 cells were gifted by Dr. Jody Gookin (Department of Clinical Sciences, College of Veterinary Medicine, North Carolina State University, Raleigh, NC, USA). […] The cells had undergone passage around 50 times. […] This experiment included plain DMEM/F12 medium as a control. At the end of the final treatments (24 h), the ratio of viable cells was measured by absorbance at 540 nm wavelength with a SpectraMax iD3 microplate reader.

[2] = test system: Escherichia (E.) coli (ATCC 11775); experiment: MIC measurement (broth microdilution); type: cell-based; details: source ATCC, 18–24 h at 37 °C
[3] = test system: Salmonella (S.) enterica (clinical isolate); experiment: MIC measurement (broth microdilution); type: cell-based; details: source 204/22, 18–24 h at 37 °C
Text: Bacterial strains used in this study were as follows: S. suis serotype 2 (ATCC 958242) Staphylococcus (S.) aureus (ATCC 10832), Escherichia (E.) coli (ATCC 11775), Pseudomonas (P.) aeruginosa (ATCC 27853), Pasteurella (P.) multocida (clinical isolate), Burkholderia (B.) cepacia (clinical isolate), Salmonella (S.) enterica (clinical isolate), and Enterococcus (E.) faecalis (clinical isolate). Of the clinical isolates used in this study, P. multocida is of porcine origin, B. cepacia is of human origin, and S. enterica and E. faecalis are of poultry origin. The bacterial strains were stored in the Microbiology Laboratory of the University of Veterinary Medicine, Budapest, at a temperature of −80 °C. Bacterial strains were inoculated the day before the test in 5 mL of Cation-Adjusted Mueller–Hinton Broth (CAMHB) and incubated for 18–24 h at 37 °C. The initial inoculum concentration used for the MIC assay was 5 × 10^5/mL. All wells except the first column of the working plates were filled with 90 µL CAMHB. A stock solution of inhibitors at 800 µM was then prepared, 180 µL of which was measured into the first column of plates and used to prepare a 2-based dilution on 96-well plates. After the 10th column, the tips were discarded with the 90 µL excess solution so that each column contained 90 µL of solution. Each bacterial strain was tested in a single row on the working plates. A bacterial suspension diluted to 25× was prepared on an auxiliary plate for bacterial inoculation by loading 240 µL of TSB per column of plates and adding 10–10 µL of bacterial strain suspension per well. In the next step, the isolated bacterial strains were inoculated onto the plates. Starting from column 11 (positive control) of the plates containing dilution row 2, 10 µL of bacterial suspension was added to each well, working backward. Column 11 served as a positive control (containing only bacterial suspension and broth), while column 12 served as a negative control (containing only broth). The microplates were then incubated at 37 °C for 18–24 h, and the MIC values were assessed in comparison to positive controls.

[4] = test system: primary porcine hepatocytes; experiment: Cell viability, Neutral red assay; type: cell-based; details: S. suis 10^4 CFU/mL in combination with inhibitor 50 µM, 24 h
Experimental: Porcine cryopreserved primary hepatocytes were obtained from Primacyt Cell Culture Company (Schwerin, Germany). Lonza Group Ltd. (Biocenter Ltd., Szeged, Hungary) supplied the thawing, plating, and maintenance media. The cytotoxic effects of inhibitors MI-432, MI-471, and MI-476 were tested on the viability of primary hepatocytes using the NR method. The hepatocytes were cultivated on a 96-well plate for 24 h, followed by incubation with the inhibitors at 0, 50, and 100 µM for an additional 24 h. Only cell maintenance medium was used to incubate the control cells. The plate underwent incubation together with NR dye for 2 h. Hepatocyte viability was recorded at 540 nm with a SpectraMax iD3 microplate reader.

S. suis serotype 2 = experiment: MIC measurement (broth microdilution); type: cell-based, Streptococcus suis; details: source 672/22, 18–24 h at 37 °C
SARS-CoV-2 = test system: SARS-CoV-2; set-up: method as in PMID 32703818; details: human airway cells, synergistically in combination with furin inhibitor MI-1851; cited from earlier work
[5] = test system: Staphylococcus (S.) aureus (ATCC 10832); experiment: MIC measurement (broth microdilution); type: cell-based; details: source ATCC, 18–24 h at 37 °C
IPEC-J2 cells [6] = experiment: IL-6 production, porcine IL-6 ELISA; type: cell-based; details: IPEC-J2, S. suis 10^4 CFU/mL in combination with inhibitor, 24 h
Experimental: (§1) After 24 h incubation time, the cell-free supernatants from […], MI-471, and MI-476 exposure were sampled from IPEC-J2 cells and from porcine hepatocytes. The changes in cytokine levels were detected with porcine IL-6 ELISA kits. The manufacturer’s instructions were followed to treat the supernatants and measured by a SpectraMax iD3 microplate reader at 450 nm.

porcine hepatocytes = experiment: IL-6 production, porcine IL-6 ELISA; type: cell-based; details: S. suis 10^4 CFU/mL in combination with inhibitor, 24 h
Experimental: as §1

IPEC-J2 cells [7] = experiment: EC H2O2 production, Amplex red method; type: cell-based, porcine; details: 24 h
Experimental: For oxidative status measurements, inhibitors MI-432, MI-471, or MI-476 were used at 50 µM in the absence and presence of S. suis for 24 h in IPEC-J2 cells and in primary porcine hepatocytes on 24-well plates. An Amplex red hydrogen peroxide assay kit was used to monitor EC hydrogen peroxide (H₂O₂) production in IPEC-J2 cells and in hepatocytes. Following the manufacturer’s instructions, cell-free supernatants were collected and mixed with the Amplex red working solution (in a ratio of 1:1). A Victor X2 2030 fluorometer was used to detect fluorescence intensity at wavelengths 530 nm and 590 nm for excitation and emission, respectively.

monkey CYP1A2 enzymes = details: cited from earlier work
[8] = test system: Burkholderia (B.) cepacia (clinical isolate); experiment: MIC measurement (broth microdilution); type: cell-based
[9] = test system: Enterococcus (E.) faecalis (clinical isolate); experiment: MIC measurement (broth microdilution); type: cell-based
[10] = test system: Pasteurella (P.) multocida (clinical isolate); experiment: MIC measurement (broth microdilution); type: cell-based; details: source 380/22, 18–24 h at 37 °C
[11] = test system: Pseudomonas (P.) aeruginosa (ATCC 27853); experiment: MIC measurement (broth microdilution); type: cell-based; details: source ATCC, 18–24 h at 37 °C
[12] = test system: S. suis strains isolated from pigs; details: cited from earlier work; for S. suis strains found to be sensitive: strains isolated from pigs, European VetPath survey 2005–2012; for S. suis strains sensitive: same survey (VetPath)
CYP2D6 = CYP2D6 (Homo sapiens, UniProt P10635); experiment: CYP enzyme fluorometric activity measurement, human hepatic microsomes; details: reference inhibitor at 3 µM; p < 0.05
Sequence of CYP2D6 (P10635 whole entry): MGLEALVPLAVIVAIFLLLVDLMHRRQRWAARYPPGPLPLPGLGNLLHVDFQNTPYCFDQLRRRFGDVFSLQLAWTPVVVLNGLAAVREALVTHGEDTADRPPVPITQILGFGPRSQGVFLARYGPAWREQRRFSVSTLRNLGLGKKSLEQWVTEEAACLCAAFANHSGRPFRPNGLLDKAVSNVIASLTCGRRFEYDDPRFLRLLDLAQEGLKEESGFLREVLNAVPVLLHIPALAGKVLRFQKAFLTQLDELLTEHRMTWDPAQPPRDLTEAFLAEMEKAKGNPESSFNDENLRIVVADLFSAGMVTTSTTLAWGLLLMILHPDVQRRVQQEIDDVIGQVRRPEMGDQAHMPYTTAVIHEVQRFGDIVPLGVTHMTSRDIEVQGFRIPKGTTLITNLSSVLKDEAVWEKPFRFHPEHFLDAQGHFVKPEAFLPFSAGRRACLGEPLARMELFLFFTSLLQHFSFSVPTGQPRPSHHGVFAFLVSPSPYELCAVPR
Experimental: (§2) The Biovision CYP assays (BioVision, Inc., Kampenhout, Belgium) employ non-fluorescent CYP2D6, 2C9, 2C19, 1A2, or 3A4 substrates able to undergo transformation into highly fluorescent detectable metabolites. […] Human hepatic microsomal supernatants were prepared (Gibco, Biocentre, Szeged, Hungary protein concentration: 20 mg/mL) separately by mixing 30 µL with 2425 µL assay buffer and with 50 µL nicotinamide adenine dinucleotide phosphate (NADPH) generating system (100×). […] Control measurements were performed in the absence of the inhibitors.
(§3) In background controls, only assay buffer excluding microsomes and test compounds was used in a volume of 70 µL. Subsequently, after incubation at 37 °C for 15 min, 30 µL of the suitable CYP substrate/NADP+ mixture was incorporated into each well, resulting in a final reaction volume of 100 µL/well. The obtained microsomal protein content was assessed using the bicinchoninic acid protein assay kit (Pierce BCA kit, Thermo Fisher Scientific, Waltham, MA, USA). In each assay, the microsomal protein concentration was calibrated to 100 µg/well. The fluorescence intensities were measured with a fluorometer (Victor X2 2030, Perkin Elmer, Waltham, MA, USA) using λex/em = 406/468 nm for CYP1A2 and for CYP2C19, λex/em = 415/502 nm for CYP2C9, λex/em = 390/468 nm for CYP2D6, and λex/em = 535/587 nm for CYP3A4 assays.

CYP1A2 = molecular target: T1, CYP1A2 (Homo sapiens, UniProt P05177); experiment: as above; details: reference inhibitor at 6 µM; p < 0.001
T1 sequence (P05177 1-516): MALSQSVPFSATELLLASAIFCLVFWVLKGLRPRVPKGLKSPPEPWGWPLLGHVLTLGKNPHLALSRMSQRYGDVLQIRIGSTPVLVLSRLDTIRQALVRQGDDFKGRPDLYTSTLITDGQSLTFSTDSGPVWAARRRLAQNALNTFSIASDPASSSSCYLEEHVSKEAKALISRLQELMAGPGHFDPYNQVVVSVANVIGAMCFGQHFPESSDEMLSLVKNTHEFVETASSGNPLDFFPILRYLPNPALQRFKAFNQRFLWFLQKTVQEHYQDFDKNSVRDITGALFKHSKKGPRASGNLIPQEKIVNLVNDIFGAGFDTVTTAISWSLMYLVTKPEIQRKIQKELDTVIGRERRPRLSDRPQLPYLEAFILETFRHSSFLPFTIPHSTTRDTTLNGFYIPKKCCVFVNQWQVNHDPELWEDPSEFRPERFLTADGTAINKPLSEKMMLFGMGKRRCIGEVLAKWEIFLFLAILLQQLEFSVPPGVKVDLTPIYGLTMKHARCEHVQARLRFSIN
Experimental: as §2, §3

[13] = B. cepacia, source 20-10299, 18–24 h at 37 °C, read-out: MIC
[14] = E. fecalis, source 442, 18–24 h at 37 °C, read-out: MIC

In the case of N=C(N)c1cccc(C[C@H](NS(=O)(=O)c2cccc(-c3ccc(Cl)cc3Cl)c2)C(=O)N2CCC(CCN)CC2)c1 [MI-432], the cell viability (IPEC-J2 cells [1]) was “slightly less worsening of the cells; also recorded: reduction in the number of viable cells”, the MIC [2] was greater than 800 µM and the MIC [3] was greater than 800 µM. The cell viability [4] was “significantly decreased cell viability; also recorded: reduction in the number of viable cells”, the MIC (S. suis serotype 2; Streptococcus suis) was 1.5 µM (≈ 0.904 µg/mL) and the MIC (S. suis serotype 2) was less than 1.5625 µM. For the same molecule, the MIC (S. suis serotype 2; listed as 432) was less than 1.5625 µM, the “efficacy against SARS-CoV-2” value (SARS-CoV-2) was “effective” and the MIC ([5]; read-out: MIC) was 50 µM (≈ 30.1 µg/mL). The IL-6 levels (IPEC-J2 cells [6]) was “significant anti-inflammatory effects”, the IL-6 levels (porcine hepatocytes) was “significant anti-inflammatory effects” and the “EC H2O2 production” value (IPEC-J2 cells [7]; IPEC-J2, S. suis 10^4 CFU/mL in combination with inhibitor 50 µM) was “unchanged H₂O₂ production; also recorded: antioxidant properties”. The “EC H2O2 production” value (IPEC-J2 cells [7]; IPEC-J2, inhibitor alone 50 µM) was “unchanged H₂O₂ production”, the “inhibition of monkey CYP1A2 enzymes” value (monkey CYP1A2 enzymes) was “significant inhibition” and the MIC [8] was 800 µM (≈ 482 µg/mL). It also gave an MIC ([9]; Enterococcus) greater than 800 µM.

For COc1ccc(-c2cccc(S(=O)(=O)N[C@@H](Cc3cccc(C(=N)N)c3)C(=O)N3CCC(N)CC3)c2)c(OC)c1 [MI-472], the MIC [2] was greater than 800 µM, the MIC [3] was greater than 800 µM and the MIC (S. suis serotype 2) was 50 µM (≈ 28.3 µg/mL). The MIC [10] was 400 µM (≈ 226 µg/mL), the MIC [11] was greater than 800 µM and the MIC ([5]; read-out: MIC) was 800 µM (≈ 453 µg/mL). It also gave an MIC [8, 13] of 800 µM (≈ 453 µg/mL) and an MIC [9, 14] greater than 800 µM.

Molecule COc1ccc(-c2cccc(S(=O)(=O)N[C@@H](Cc3cccc(C(=N)N)c3)C(=O)N3CCC(NC(=O)NC(C)(C)C)CC3)c2)c(OC)c1 [MI-485] has an MIC [2] greater than 800 µM, an MIC [3] greater than 800 µM and an MIC (S. suis serotype 2) of 50 µM (≈ 33.2 µg/mL). For the same molecule, the MIC [10] was greater than 800 µM, the MIC [11] was greater than 800 µM and the MIC [5] was 100 to 200 µM. The MIC ([5]; read-out: MIC) was 200 µM (≈ 133 µg/mL), the MIC [8, 13] was 800 µM (≈ 532 µg/mL) and the MIC [9, 14] was greater than 800 µM.

In the case of COc1ccc(-c2cccc(S(=O)(=O)N[C@@H](Cc3cccc(C(=N)N)c3)C(=O)N3CCN(C(=O)NC4CCCCC4)CC3)c2)c(OC)c1 [MI-1900, reference compound], the “efficacy against SARS-CoV-2” value (SARS-CoV-2) is given as “effective”.

In the case of CO/N=C(\C(=O)N[C@@H]1C(=O)N2C(C(=O)O)=C(CSC(=O)c3ccco3)CS[C@H]12)c1csc(N)n1 [ceftiofur], the “S. suis strains found to be sensitive” value [12] is given as 97%.

In the case of CCN1CCN(c2cc3c(cc2F)c(=O)c(C(=O)O)cn3C2CC2)CC1 [enrofloxacin], the “S. suis strains sensitive” value [12] is listed as “more than 95%”.

In the case of CS(=O)(=O)c1ccc([C@@H](O)[C@@H](CF)NC(=O)C(Cl)Cl)cc1 [florfenicol], the “S. suis strains sensitive” value [12] is given as “more than 95%”.

In the case of C=C[C@H]1C[N@@]2CC[C@H]1C[C@@H]2[C@@H](O)c1ccnc2ccc(OC)cc12 [quinidine], the CYP2D6 activity (CYP2D6) was “significantly suppressed”.

In the case of CN(C)[C@@H]1C(O)=C(C(N)=O)C(=O)[C@@]2(O)C(O)=C3C(=O)c4c(O)cccc4[C@@](C)(O)[C@H]3C[C@@H]12 [tetracycline], the “S. suis strains sensitive” value [12] is given as 4%.

With O=c1cc(-c2ccccc2)oc2c1ccc1ccccc12 [α-naphthoflavone, reference compound] the CYP1A2 activity (CYP1A2) was “significantly suppressed”.

For amoxicillin–clavulanic acid, the “S. suis strains found to be sensitive” value [12] is listed as 100%.
